± gives the standard deviation of the averaged measurements.
Experiments:
[1] = compound: CC(=O)c1c(C)c2cnc(Nc3ccc(N4CCNCC4)cn3)nc2n(C2CCCC2)c1=O; assay: surviving fraction relative to DMSO-only wells; higher = less growth inhibition; conditions: exposure time: 5 days
Outline: (§1)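 Luminescence normalised to the median of DMSO-only wells defines surviving fraction, with viability read by CellTiter-Glo. Signal was recorded after 10 minutes at room temperature, once log-phase tumour cell lines seeded at 250–500 cells per well in 384-well plates had spent 24 hours settling and then five days under continuous exposure to inhibitors at 0.5, 1, 5, 10, 50, 100, 500 and 1000 nM.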

[2] = compound: T1, CC(=O)O[C@H]1C(=O)[C@@]2(C)[C@H]([C@H](OC(=O)c3ccccc3)[C@]3(O)C[C@H](OC(=O)[C@H](O)[C@@H](NC(=O)c4ccccc4)c4ccccc4)C(C)=C1C3(C)C)[C@]1(OC(C)=O)CO[C@@H]1C[C@@H]2O [PACLITAXEL]; assay: as above; conditions: exposure time: 5 days
Outline: as §1

[3] = compound: T2, C[C@]1(O)C[C@@H](c2nc(-c3ccc4ccc(-c5ccccc5)nc4c3)c3c(N)nccn32)C1 [OSI-906]; assay: as above; conditions: exposure time: 5 days
Outline: as §1

[4] = compound: CC(=O)NCC(=O)N1[C@@H]2CC[C@H]1c1ccc(Nc3ncc(C(F)(F)F)c(NC4CCC4)n3)cc12; assay: as above; conditions: exposure time: 5 days
Outline: as §1

[5] = compound: CC[C@@]1(O)C(=O)OCc2c1cc1n(c2=O)Cc2cc3ccccc3nc2-1 [CAMPTOTHECIN]; assay: as above; conditions: exposure time: 5 days
Outline: as §1

[6] = compound: T3, Cc1ccc(-c2cc(C(F)(F)F)nn2-c2ccc(S(N)(=O)=O)cc2)cc1 [CELECOXIB]; assay: as above; conditions: exposure time: 5 days
Outline: as §1

[7] = compound: T4, O=C(O)C1(C(=O)O)CCC1.[NH2-].[NH2-].[Pt+2] [CARBOPLATIN]; assay: as above; conditions: exposure time: 5 days
Outline: as §1

[8] = compound: T5, COCC[n+]1c2c(n(Cc3cnccn3)c1C)C(=O)c1ccccc1C2=O [YM155]; assay: as above; conditions: exposure time: 5 days
Outline: as §1

[9] = compound: T6, COc1cc2ncnc(Nc3ccc(F)c(Cl)c3)c2cc1OCCCN1CCOCC1 [GEFITINIB]; assay: as above; conditions: exposure time: 5 days
Outline: as §1

[10] = compound: CC(=O)c1c(C)c2cnc(Nc3ccc(N4CCNCC4)cn3)nc2n(C2CCCC2)c1=O; assay: area under dose-response curve of surviving fraction (unscaled, Aref=0) (surviving fraction x log10(nM)); higher = more resistant; conditions: exposure time: 5 days; dose range 0.5-1000 nM
Outline: (§2)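 Tumour cell lines in 384-well plates were exposed for five days to eight inhibitor concentrations from 0.5 to 1000 nM. Viability was read by CellTiter-Glo luminescence, normalised to DMSO-only wells, in three screens per line. Dose-response survival curves were fitted to surviving fractions by 3-parameter logistic regression in the drc R package. Area under the curve is the unscaled activity area (Aref = 0) over log10 dose.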

[11] = compound: T1, PACLITAXEL; assay: as above; conditions: exposure time: 5 days; dose range 0.5-1000 nM
Outline: as §2

[12] = compound: T2, OSI-906; assay: as above; conditions: exposure time: 5 days; dose range 0.5-1000 nM
Outline: as §2

[13] = compound: CC(=O)NCC(=O)N1[C@@H]2CC[C@H]1c1ccc(Nc3ncc(C(F)(F)F)c(NC4CCC4)n3)cc12; assay: as above; conditions: exposure time: 5 days; dose range 0.5-1000 nM
Outline: as §2

[14] = compound: T3, CELECOXIB; assay: as above; conditions: exposure time: 5 days; dose range 0.5-1000 nM
Outline: as §2

[15] = compound: T4, CARBOPLATIN; assay: as above; conditions: exposure time: 5 days; dose range 0.5-1000 nM
Outline: as §2

[16] = compound: T5, YM155; assay: as above; conditions: exposure time: 5 days; dose range 0.5-1000 nM
Outline: as §2

[17] = compound: T6, GEFITINIB; assay: as above; conditions: exposure time: 5 days; dose range 0.5-1000 nM
Outline: as §2

SUM149 BREAST
surviving fraction ([1]; 0.5 nM): 1.15 ± 0.042 | surviving fraction ([1]; 1 nM): 1.09 ± 0.049 | surviving fraction ([1]; 5 nM): 1.04 ± 0.076 | surviving fraction ([1]; 10 nM): 0.943 ± 0.11 | surviving fraction ([1]; 50 nM): 1.1 ± 0.065 | surviving fraction ([1]; 100 nM): 1.14 ± 0.064 | surviving fraction ([1]; 500 nM): 0.871 ± 0.024 | surviving fraction ([1]; 1000 nM): 0.88 ± 0.07 | surviving fraction ([2]; 0.5 nM): 0.809 ± 0.053 | surviving fraction ([2]; 1 nM): 0.452 ± 0.11 | surviving fraction ([2]; 5 nM): 0.0573 ± 0.004 | surviving fraction ([2]; 10 nM): 0.0463 ± 0.0085 | surviving fraction ([2]; 50 nM): 0.0357 ± 0.00058 | surviving fraction ([2]; 100 nM): 0.0373 ± 0.0038 | surviving fraction ([2]; 500 nM): 0.0337 ± 0.006 | surviving fraction ([2]; 1000 nM): 0.0307 ± 0.0023 | surviving fraction ([3]; 0.5 nM): 0.923 ± 0.08 | surviving fraction ([3]; 1 nM): 0.951 ± 0.079 | surviving fraction ([3]; 5 nM): 0.839 ± 0.035 | surviving fraction ([3]; 10 nM): 0.79 ± 0.035 | surviving fraction ([3]; 50 nM): 0.827 ± 0.2 | surviving fraction ([3]; 100 nM): 0.782 ± 0.082 | surviving fraction ([3]; 500 nM): 0.581 ± 0.078 | surviving fraction ([3]; 1000 nM): 0.553 ± 0.034 | surviving fraction ([4]; 0.5 nM): 0.949 ± 0.11 | surviving fraction ([4]; 1 nM): 1.02 ± 0.11 | surviving fraction ([4]; 5 nM): 1.07 ± 0.089 | surviving fraction ([4]; 10 nM): 0.986 ± 0.056 | surviving fraction ([4]; 50 nM): 0.67 ± 0.074 | surviving fraction ([4]; 100 nM): 0.389 ± 0.071 | surviving fraction ([4]; 500 nM): 0.267 ± 0.029 | surviving fraction ([4]; 1000 nM): 0.224 ± 0.032 | surviving fraction ([5]; 10 nM): 0.126 ± 0.0081 | surviving fraction ([5]; 50 nM): 0.102 ± 0.0081 | surviving fraction ([5]; 100 nM): 0.0913 ± 0.0049 | surviving fraction ([5]; 500 nM): 0.048 ± 0.0052 | surviving fraction ([5]; 1000 nM): 0.0367 ± 0.0055 | surviving fraction ([6]; 0.5 nM): 1.1 ± 0.056 | surviving fraction ([6]; 1 nM): 1.09 ± 0.021 | surviving fraction ([6]; 5 nM): 1.2 ± 0.035 | surviving fraction ([6]; 10 nM): 1.16 ± 0.057 | surviving fraction ([6]; 50 nM): 1.08 ± 0.021 | surviving fraction ([6]; 100 nM): 1.09 ± 0.13 | surviving fraction ([6]; 500 nM): 1.06 ± 0.04 | surviving fraction ([6]; 1000 nM): 1.12 ± 0.13 | surviving fraction ([7]; 0.5 nM): 1.02 ± 0.019 | surviving fraction ([7]; 1 nM): 1.04 ± 0.13 | surviving fraction ([7]; 5 nM): 1.02 ± 0.049 | surviving fraction ([7]; 10 nM): 0.943 ± 0.074 | surviving fraction ([7]; 50 nM): 0.909 ± 0.06 | surviving fraction ([7]; 100 nM): 0.905 ± 0.076 | surviving fraction ([7]; 500 nM): 0.927 ± 0.057 | surviving fraction ([7]; 1000 nM): 0.927 ± 0.077 | surviving fraction ([8]; 0.5 nM): 0.87 ± 0.17 | surviving fraction ([8]; 1 nM): 1.07 ± 0.061 | surviving fraction ([8]; 5 nM): 0.81 ± 0.064 | surviving fraction ([8]; 10 nM): 0.445 ± 0.093 | surviving fraction ([8]; 50 nM): 0.044 ± 0.001 | surviving fraction ([8]; 100 nM): 0.0257 ± 0.0035 | surviving fraction ([8]; 500 nM): 0.0203 ± 0.0032 | surviving fraction ([8]; 1000 nM): 0.023 ± 0.0036 | surviving fraction ([9]; 0.5 nM): 1.16 ± 0.077 | surviving fraction ([9]; 1 nM): 1.15 ± 0.098 | surviving fraction ([9]; 5 nM): 1.08 ± 0.052 | surviving fraction ([9]; 10 nM): 1.15 ± 0.12 | surviving fraction ([9]; 50 nM): 0.926 ± 0.016 | surviving fraction ([9]; 100 nM): 0.8 ± 0.026 | surviving fraction ([9]; 500 nM): 0.487 ± 0.04 | surviving fraction ([9]; 1000 nM): 0.448 ± 0.076 | area under dose-response curve [10]: 3.23 | area under dose-response curve [11]: 0.407 | area under dose-response curve [12]: 2.61 | area under dose-response curve [13]: 2.36 | area under dose-response curve [14]: 3.68 | area under dose-response curve [15]: 3.13 | area under dose-response curve [16]: 1.31 | area under dose-response curve [17]: 2.81

Reference: the supplement of paper PMC6045584
